Assay results as given in paper PMC8003416, “Modulation of Human Phenylalanine Hydroxylase by 3-Hydroxyquinolin-2(1H)-One Derivatives” (Biomolecules, 2021).

Key:
[1] = biological target: T1, human phenylalanine hydroxylase (hPAH) (Homo sapiens, UniProt P00439); assay: Differential scanning fluorimetry (thermal denaturation); assay type: binding; settings: for Tm1 (regulatory domain) / Tm2 (catalytic domain): 100 μM compound in 1% DMSO; for Tm1 (regulatory domain): control 43.4 ± 0.6; for Tm2 (catalytic domain): control 53.5 ± 0.4; for ΔTm1 (regulatory domain) / ΔTm2 (catalytic domain): 100 μM compound vs 1% DMSO control, * S.D. < 0.01; for effect on thermal stability of regulatory and catalytic domains (|ΔTm| ≥ 2 °C): 100 μM compound
T1 construct: Recombinant full-length wild-type (WT) hPAH was expressed in E. coli Top10 cells in fusion with a hexa-histidyl peptide; made in house; host or cells: E. coli Top10
T1 sequence (P00439 1-452): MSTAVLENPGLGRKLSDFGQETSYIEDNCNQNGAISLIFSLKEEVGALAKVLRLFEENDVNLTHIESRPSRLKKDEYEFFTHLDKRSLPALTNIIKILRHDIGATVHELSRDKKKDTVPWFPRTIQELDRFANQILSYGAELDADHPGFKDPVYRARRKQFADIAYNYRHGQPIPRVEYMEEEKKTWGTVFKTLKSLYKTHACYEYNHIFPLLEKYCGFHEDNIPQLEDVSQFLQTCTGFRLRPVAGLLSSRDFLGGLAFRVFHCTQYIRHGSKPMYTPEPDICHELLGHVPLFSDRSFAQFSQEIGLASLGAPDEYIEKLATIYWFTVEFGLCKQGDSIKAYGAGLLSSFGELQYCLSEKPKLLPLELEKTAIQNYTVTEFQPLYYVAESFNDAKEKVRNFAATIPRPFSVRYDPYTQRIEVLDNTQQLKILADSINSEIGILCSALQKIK
Protocol: Thermal denaturation profiles of recombinant hPAH were obtained by differential scanning fluorimetry (DSF) in a C1000 Touch thermal cycler equipped with a CFX96 optical reaction module (Bio-Rad; Hercules, CA, USA) as previously described. Briefly, DSF assays (n = 3) were performed using 100 μg/mL hPAH tetramers (final concentration of 0.45 μM of tetramer), SYPRO Orange (5000-fold commercially available stock solution; Invitrogen; Carlsbad, CA, USA) at a 2.5-x final concentration and ramping the temperature from 20 to 90 °C, at 1 °C/min. Fluorescence data were acquired using the FRET channel. Data were processed using CFX Manager Software V3.0 (Bio-Rad) and the GraphPad Prism. Temperature scan curves were fitted to a biphasic dose–response function and the Tm values were obtained from the midpoint of the first (Tm1) and second transitions (Tm2) corresponding, respectively, to the thermal denaturation of the regulatory and catalytic domains. The Tm values in the presence of 3HQ were compared to those obtained in the presence of 1% DMSO (vehicle control) and a change in the Tm was considered significant when the |ΔTm| ≥ 2 °C [22].

[2] = biological target: T1, human phenylalanine hydroxylase (hPAH); assay: hPAH enzymatic activity assay (NA, 3HQ-A and Phe/3HQ-A conditions); assay type: biochemical; settings: 100 μM compound; for fold activation by L-Phe (Phe/3HQ-A vs. 3HQ-A): 100 μM L-Phe; for hPAH activity vs respective control: all three conditions (NA, 3HQ-A, Phe/3HQ-A)
Protocol: The hPAH activity was measured essentially as previously described. Briefly, the enzymatic reaction was performed in a 200 μL final volume, containing 250 mM Na-HEPES, pH 7, 0.1 mg/mL catalase (Sigma-Aldrich; St. Louis, MO, USA), 5 μg (final concentration of 0.112 μM of tetramer) of recombinant hPAH tetramers and 100 μM (NH4)2Fe(II)SO4. Using 100 μM L-Phe and 100 μM of tested compound, three experimental conditions were used to study the compounds’ modulatory effect, namely: non activated (NA), 3HQ-activated (3HQ-A) and substrate/3HQ-activated (Phe/3HQ-A) (Supplementary Figure S3). The reaction was started by addition of 75 μM BH4 (Schircks Laboratories; Bauma, Switzerland) prepared in 5 mM ascorbic acid. In the NA assay, the L-Phe substrate and tested compounds were added together with 75 µM BH4 at the start of the hydroxylation reaction. In the 3HQ-A condition, hPAH was pre-incubated with the tested compound for 4 min at 25 °C and the reaction was started by the addition of BH4 together with L-Phe. In the Phe/3HQ-A condition, hPAH was pre-incubated simultaneously with L-Phe and the tested compound (4 min, 25 °C). Appropriate control reactions were performed where the compounds were omitted and 1% DMSO was used. Kinetic parameters were determined using variable concentrations of L-Phe (25 to 2500 μM) and fixed concentrations of BH4 (75 μM) and tested compound (100 μM). After a 1-min incubation, the reaction was stopped, and the amount of L-Tyr produced was quantified by HPLC as previously described. The specific hPAH enzymatic activity is expressed as nmol of L-Tyr produced during 1 min per mg of protein (nmol L-Tyr.min^−1.mg^−1). The steady-state kinetic data were analyzed by nonlinear regression analysis using GraphPad Prism (La Jolla, CA, USA). Data was fitted to the modified Hill equation accounting for cooperative substrate binding as well as substrate inhibition (Equation (1)), to the modified Michaelis–Menten equation which accounts for substrate inhibition (Equation (2)) and to the non-modified Michaelis–Menten equation:v = (Vmax + Vi ([S]^x/Ki^x))/(1 + (K^h/[S]^h) + ([S]^x/Ki^x))(1) v = (Vmax [S])/(Km + [S](1 + [S]/Ki))(2)

[3] = biological target: hPAH; set-up: method as in PMID 9843368; settings: ref [36]; read-out: KD (high affinity binding to hPAH); cited from earlier work
[4] = biological target: the molecule itself; assay: SEC; HiLoad Superdex 200 HR column (1.6 x 60 cm), 20 mM Na-HEPES, 200 mM NaCl, pH 7.0, 0.7 mL/min, 4 °C; preparative isolation of the oligomeric form after affinity purification

Molecule	Tm1 (regulatory domain) [1] [°C]	Tm2 (catalytic domain) [1] [°C]	ΔTm1 (regulatory domain) [1]	ΔTm2 (catalytic domain) [1]	further results
O=C(CNC(=O)c1c(O)c(=O)[nH]c2ccc(OC(F)(F)F)cc12)OCc1ccccc1 [Compound 12]	43.8 ± 0.1	53.1 ± 0.1	0.4 ± 0.01 °C	-0.4 ± 0.01 °C	fold enzyme activation by compound (3HQ-A vs. NA) [2]: 0.6 fold; fold activation by L-Phe (Phe/3HQ-A vs. 3HQ-A) [2]: allowing substrate activation
NC[C@H](O)c1ccc(O)c(O)c1 [noradrenaline]	–	–	–	–	Kd [3]: < 1000 nM
CCOC(=O)[C@H](Cc1ccccc1)NC(=O)c1c(O)c(=O)[nH]c2ccc(Cl)cc12 [Compound 2]	35.6 ± 0.2	43.0 ± 0.4	-7.8 ± 0.04 °C	-10.5 ± 0.11 °C	effect on thermal stability of regulatory and catalytic domains (|ΔTm| ≥ 2 °C) [1]: destabilized the regulatory and catalytic domains; hPAH activity vs respective control [2]: high decreases in enzyme activity
COC(=O)[C@H](CC(C)C)NC(=O)c1c(O)c(=O)[nH]c2ccc(OC(F)(F)F)cc12 [Compound 10]	43.1 ± 0.5	53.4 ± 0.2	-0.3 ± 0.01 °C	–	fold enzyme activation by compound (3HQ-A vs. NA) [2]: 0.9 fold; fold activation by L-Phe (Phe/3HQ-A vs. 3HQ-A) [2]: 1.4 fold; remaining activity at 100 µM ([2]; NA (non-activated) condition, read-out: hPAH residual activity vs control): 68%
CCOC(=O)CNC(=O)c1c(O)c(=O)n(Cc2ccccc2)c2ccccc12 [Compound 13]	44.6 ± 0.4	53.5 ± 0.1	+1.2 ± 0.01 °C	+0.1 ± 0.01 °C	fold enzyme activation by compound (3HQ-A vs. NA) [2]: decreased enzyme activity
O=C(NCc1ccccc1)c1c(O)c(=O)n(Cc2ccccc2)c2ccccc12 [Compound 14]	44.8 ± 0.1	53.5 ± 0.1	+1.4 ± 0.01 °C	+0.1 ± 0.01 °C	fold activation by L-Phe (Phe/3HQ-A vs. 3HQ-A) [2]: did not allow substrate activation
CCOC(=O)[C@H](Cc1ccccc1)NC(=O)c1c(O)c(=O)[nH]c2ccccc12 [Compound 1]	39.4 ± 1.0	55.9 ± 0.2	-3.9 ± 0.10 °C	+2.4 ± 0.01 °C	hPAH activity vs respective control [2]: high decreases in enzyme activity
CCOC(=O)[C@H](Cc1ccccc1)NC(=O)c1c(O)c(=O)n(Cc2ccccc2)c2ccc(OC(F)(F)F)cc12 [Compound 4]	37.8 ± 1.9	42.7 ± 0.3	-5.6 ± 0.28 °C	-10.8 ± 0.08 °C	effect on thermal stability of regulatory and catalytic domains (|ΔTm| ≥ 2 °C) [1]: destabilized the regulatory and catalytic domains; hPAH activity vs respective control [2]: high decreases in enzyme activity
CNC[C@H](O)c1ccc(O)c(O)c1 [adrenaline]	–	–	–	–	Kd [3]: < 1000 nM
NCCc1ccc(O)c(O)c1 [dopamine]	–	–	–	–	Kd [3]: < 1000 nM
MBP-FXa-hPAH-RD^1–120 (N-terminal regulatory domain of human phenylalanine hydroxylase fused to maltose binding protein) (domain or fragment, UniProt P00439 1-120, looked up, human phenylalanine hydroxylase, N-terminal regulatory domain, amino acids 1-120; The fusion is about 53 kDa; also called MBP-FXa-hPAH-RD^1–120 fusion protein; dimeric MBP-FXa-hPAH-RD^1–120; source: E. coli TB1, purified (amylose resin, then SEC to isolate dimers); not shown: MBP, N-terminal, kept) MSTAVLENPGLGRKLSDFGQETSYIEDNCNQNGAISLIFSLKEEVGALAKVLRLFEENDVNLTHIESRPSRLKKDEYEFFTHLDKRSLPALTNIIKILRHDIGATVHELSRDKKKDTVPW	–	–	–	–	stoichiometry N [4]: 2
Recombinant full-length wild-type human phenylalanine hydroxylase (enzyme, UniProt P00439 1-452, looked up, human phenylalanine hydroxylase (hPAH; EC 1.14.16.1), full-length wild type, expressed in fusion with a hexa-histidyl peptide; It gives a subunit mass of 55 kDa and an expected tetramer mass of 223 kDa; Non-heme iron sits in the catalytic site; also called hPAH; PAH; source: E. coli Top10, purified (IMAC on Ni-NTA agarose, then SEC to isolate tetramers)) MSTAVLENPGLGRKLSDFGQETSYIEDNCNQNGAISLIFSLKEEVGALAKVLRLFEENDVNLTHIESRPSRLKKDEYEFFTHLDKRSLPALTNIIKILRHDIGATVHELSRDKKKDTVPWFPRTIQELDRFANQILSYGAELDADHPGFKDPVYRARRKQFADIAYNYRHGQPIPRVEYMEEEKKTWGTVFKTLKSLYKTHACYEYNHIFPLLEKYCGFHEDNIPQLEDVSQFLQTCTGFRLRPVAGLLSSRDFLGGLAFRVFHCTQYIRHGSKPMYTPEPDICHELLGHVPLFSDRSFAQFSQEIGLASLGAPDEYIEKLATIYWFTVEFGLCKQGDSIKAYGAGLLSSFGELQYCLSEKPKLLPLELEKTAIQNYTVTEFQPLYYVAESFNDAKEKVRNFAATIPRPFSVRYDPYTQRIEVLDNTQQLKILADSINSEIGILCSALQKIK	–	–	–	–	stoichiometry N [4]: 4
